Data published in paper PMC6379637, “Consecutive influenza surveillance of neuraminidase mutations and neuraminidase inhibitor resistance in Japan” (Influenza and Other Respiratory Viruses, 2019).
Values joined by “and” are separate entries in the source; they are usually repeats but may differ in a detail not shown here. Identical values can stand only once. Like-named read-outs stand apart in the source and are kept apart here.

Key:
A/H3N2 neuraminidase = assay type: biochemical, influenza A/H3N2 virus
[1] = tested on: A/H1N1pdm09 neuraminidase; assay type: biochemical, influenza A/H1N1pdm09 virus
[2] = tested on: influenza B neuraminidase; assay type: biochemical, influenza B virus
[3] = read-out: IC50 (nM), second column without sub-head (median IC50 value)

CCOC(=O)C1=C[C@@H](OC(CC)CC)[C@H](NC(C)=O)[C@@H](N)C1 [Oseltamivir, oseltamivir phosphate]
IC50 (A/H3N2 neuraminidase; read-out: median IC50 values): 1.1 nM

CCC(CC)[C@H](NC(C)=O)[C@@H]1[C@H](O)[C@@H](C(=O)O)C[C@H]1N=C(N)N [Peramivir, peramivir hydrate]
reduced susceptibility class (RI/HRI, WHO criteria) [1]: RI (key: For A viruses, reduced inhibition (RI) was defined as a 10‐fold to 100‐fold increase in IC50 values; highly reduced inhibition (HRI) was defined as more than 100‐fold increase in IC50 values)
IC50 ([1]; read-out: median IC50 values): 0.3 nM and 0.5 nM and 0.4 nM
IC50 (A/H3N2 neuraminidase; read-out: IC50 (nM), median IC50 value (unheaded second column)): 1 nM
IC50 (A/H3N2 neuraminidase; [3]): 0.8 nM
IC50 (A/H3N2 neuraminidase; read-out: IC50 (nM), second unheaded column: median IC50 value): 0.7 nM
IC50 (A/H3N2 neuraminidase; read-out: median IC50 value): 0.7 nM
IC50 (A/H3N2 neuraminidase; read-out: median IC50 value (unheaded second column under IC50 (nM))): 0.7 nM
Fold change (IC50 / median IC50) [2]: 0.9 and 0.762 and 1.0 and 0.857 and 0.667 and 1.2 and 1.1 and 0.952
Fold change (ratio of IC50 to the median IC50 value) [2]: 0.8 and 1.1 and 0.7 and 0.76 and 1.0 and 1.3 and 1.2 and 0.9
IC50 ([2]; read-out: median IC50 values): 2.5 nM and 2.1 nM

CC(=O)N[C@H]1[C@H]([C@H](O)[C@H](O)CO)OC(C(=O)O)=C[C@@H]1N=C(N)N [Zanamivir, zanamivir hydrate]
IC50 (A/H3N2 neuraminidase; [3]): 2.2 nM
IC50 (A/H3N2 neuraminidase; read-out: median IC50 value): 1.6 nM
IC50 (A/H3N2 neuraminidase; read-out: median IC50 values): 2.4 nM
